From patent publication US10617677B2, “Nuclear transport modulators and uses thereof” (Biogen MA Inc., priority 2012, dated 2020)
“Also recorded” adds a separate entry of the source.

Legend:
[1] = system: COX-2; assay: COX-2 protein expression in HeLa cells (immunoblot); assay type: cell-based; settings: 1 μM Compound 1 + 20 ng/ml TNFα, 24 hours
Method: HeLa cells were plated in a 6-well culture dish (5×10^5 cells/well) with EMEM medium (Lonza) supplemented with 10% heat-inactivated fetal bovine serum (Invitrogen). Two of the wells of the plate were pre-treated with 1 μM of Compound 1 for 30 minutes, at which time one of the wells was exposed to 20 ng/ml TNFα (Preprotech) for 24 hours. The other wells were treated with either 20 ng/ml TNFα or nothing for 24 hours. Following the treatment, whole-cell lysates were generated from the cells by lysis with RIPA buffer supplemented with protease and phosphatase inhibitors (Roche). Immunoblot detection of COX-2 protein was performed using an anti-COX-2 antibody (Cayman). Signal intensity for the COX-2 protein was normalized to that of beta-actin (Santa Cruz) for each sample and plotted graphically as arbitrary intensity units.

[2] = system: NF-κB; assay: NF-κB transcriptional activity in TNFα-induced HeLa cells; assay type: cell-based; settings: Homo sapiens, 1 h pre-treatment, then 4 h of 20 ng/mL TNFα, average of three experiments, read-out: IC50, inhibition of NF-κB transcriptional activity
Method: The compounds were tested on HeLa (adenocarcinoma) cells to quantify their ability to inhibit NF-κB transcriptional activity. NF-κB activity was induced in HeLa cells by TNFα, and then the compounds were added to inhibit the induced NF-κB activity. Half maximal inhibitory concentrations (IC50) of several compounds, namely Compound 1, Compound 2 and Compound 12, were determined by dose response studies.
HeLa cells were plated in a 12-well plate (200,000 cells/well) and cultured in Eagle's Minimal Essential medium (EMEM) from Lonza supplemented with 10% heat-inactivated fetal bovine serum (Invitrogen) and 50 μg/mL penicillin/streptomycin (Invitrogen), and were left overnight to attach. Cells were pre-treated with serial diluted (started at 30 µM; 1:3 dilution) compounds for 1 h and then exposed to 20 ng/mL TNFα (Peprotech) for 4 h in serum free media. After the treatment, the cells were washed with PBS (Invitrogen), and lysed with RIPA buffer (Themo Scientific). The transcription activity of NF-κB in the cells was measured by Chemiluminescent Transcription Factor Assay kit (Thermo Scientific Catalog #89859), according to the manufacturer's instruction. Briefly, 1.5 mg/mL of RIPA lysed whole cell extract from each treatment were incubated in a 96-well plate bound with NF-κB biotinylated-consensus sequence. The active NF-κB transcription factor bound to the consensus sequence was incubated with NF-κB p65 primary antibody and then with a secondary HRP-conjugated antibody. A chemiluminescent substrate was added to the wells and the resulting signal was detected using a luminometer. Three separate experiments were analyzed for each concentration of the IC50 curves. XLFit model 205 was used to calculate IC50 curves.
Inhibition of NF-κB transcriptional activity was measured by serial dilutions of Compound 1, Compound 2 and Compound 12 after 1 h of compound pre-treatment followed by 4 h of 20 ng/mL TNFα exposure. Three independent experiments were scored for each concentration, with the average being presented here.

[3] = system: collagen-induced arthritis; assay: Collagen-induced arthritis (CIA) in Lewis rats; assay type: in vivo; settings: 4 mg/kg PO QoD from onset to day 28
Method: Forty (40) female Lewis rats (BK), aged 6 to 8 weeks with a pre-treatment body weight range of 180 to 200 g were divided randomly into four (4) groups (Groups A-D) of ten (10) rats each. The rats in Groups B to D were immunized intradermally with bovine CII in IFA at three sites near the base of the tail and over the back with 500 μL of the emulsion on day 0 (200 μL, 200 μL, 100 μL for each site). On day 7, the rats in Groups B-D were given booster injections with the same amount of the emulsion intradermally near the former injection sites. […] Rats were weighed daily and a drug holiday was given to an animal when a weight loss of greater than 13%. CIA development was evaluated via macroscopic scoring and measurements of paw swelling. […] Foot volume was measured by plethysmometry on the same day of the arthritic measurement throughout the study period. The cubage of each hind paw and swelling rate were measured and using the following equation: Swelling Rate=(CN−C0)/C0×100%. […] The clinical scores were summed for each animal, and the total average of all animals in each group was expressed as the mean arthritic score. […] Prepared sections of hind paws were subjected to hematoxylin and eosin (H&E) staining.

[4] = system: Z-138 xenograft tumors; assay: Z-138 lymphoma xenograft in SCID mice; assay type: in vivo
Method: Z-138 (ATCC # CRL-3001) mantle cell lymphoma cells were obtained from ATCC. These cells were grown in IMEM medium supplemented with 10% horse serum, 1% penicillin and streptomycin, and 2 mM L-glutamine. […] Twenty-four (24) female CB-17 SCID mice (Charles River Labs strain code 236), aged 5 to 6 weeks were used. The SCID mice were inoculated in the left flank with Z-138 cells in a volume of 0.2 mL, equivalent to 4×10^7 cells per mouse. […] Mice were allocated to […] prior to the initiation of treatment based on tumor volume such that mean tumor volume in each group was within the range of 77 to 92 mm^3. […] Animals were fed with Labdiet® 5001 rodent chow and sterile water ad libitum. […] Animals with weight loss of more than 20% of their starting weight were euthanized. Mice with weight loss of more than 15% of their starting weight were not treated again until weight loss recovered to less than 5% of their starting weight. Any animals with a tumor volume of more than 1500 mm^3 were euthanized. Dosing solutions were prepared fresh on each day of dosing. […] This was prepared by dissolving the lyophilized powder in sterile water.

[5] = system: PMA-induced psoriasis; assay: PMA-induced psoriasis in female BALB/c mice; assay type: in vivo; settings: 10 μM topical, daily
Method: Twenty-four (24) female BALB/c mice, aged 6 to 8 weeks with a body weight between 22 and 30 g were used. The mice were randomized into […]. The grouping of animals was as follows: Group I (Naïve; ethanol), Group II (PMA; ethanol), Group III (PMA; […] Twenty (20) μL of PMA (4 μg/20 μL of acetone) was applied topically on the upper surface of pinna of ear of all animals in Group II to Group IV. PMA was applied daily on left ear and on alternate days (M-W-F) on right ear from Day 1 to Day 9. Thirty (30) minutes after application of PMA, vehicle or standard compound (betamethasone) or Compound 2 was applied topically to the ears of animals from different groups. […] Animals were observed daily for a period of 12 days for any treatment related symptoms. Basal ear thickness was recorded in all animals (before application of PMA) using digital screw gauge at time T0 (Day 1). […] Commercially available 100% DMSO (LR Grade) and ethanol (LR Grade) were used to prepare the formulations. PMA was prepared by dissolving 10 mg of PMA in 50.0 mL of acetone. Compound 2 was prepared by dissolving 1.47 mg of Compound 2 in 300 μL of 100% DMSO.

| IC50 [2] [nM] | weight loss ([4]; 15 mg/kg PO MWF) | SMILES | COX-2 protein expression [1] | Clinical Scores, Joint Swelling and histological examination [3] | histopathology of hind paws (H&E) [3] | tumor growth relative to vehicle (area under the growth curves, ANOVA) ([4]; Compound 2 15 or 7.5 mg/kg PO MWF, cyclophosphamide 80 mg/kg IP) | anti-psoriatic activity [5] | left and right ear disease activity index (DAI) [5] | left and right ear thickness [5] |
| --- | --- | --- | --- | --- | --- | --- | --- | --- | --- |
| 1590 |  | CC(C)(C)C(=O)NNC(=O)/C=C\n1cnc(-c2cc(C(F)(F)F)cc(C(F)(F)F)c2)n1 [Compound 1, (Z)-3-(3-(3,5-bis(trifluoromethyl)phenyl)-1H-1,2,4-triazol-1-yl)-N′-pivaloylacrylohydrazide] | decreased the amount of COX-2 protein in the presence of TNFα; also recorded: does reduce the amount of TNFα induced expression of COX-2 protein; also recorded: inhibits TNFα-induced COX-2 protein expression |  |  |  |  |  |  |
| 1220 | Some weight loss was observed | O=C(/C=C\n1cnc(-c2cc(C(F)(F)F)cc(C(F)(F)F)c2)n1)NNC(=O)CN1CCOCC1 [Compound 2, (Z)-3-(3-(3,5-bis(trifluoromethyl)phenyl)-1H-1,2,4-triazol-1-yl)-N′-(2-morpholinoacetyl)acrylohydrazide] |  | therapeutic efficacy | relatively intact cartilage was found on the joint surface and pannus formation was minimal | antitumor effect at both 7.5 mg/kg and 15 mg/kg doses in a dose dependent manner | statistically significant anti-psoriatic activity | prominent reduction in PMA-induced increases | prominent reduction in PMA-induced increases |
